{"source": "paper PMC8845813", "about": "(Angewandte Chemie (International ed. in English), 2021)", "origin": "cited, not measured here", "test_system": "LC3A and LC3B LIR-interaction interface"}
{"smiles": "CO[C@@H]1[C@@H](OC(N)=O)[C@@H](O)[C@H](Oc2ccc3c(O)c(NC(=O)c4ccc(O)c(CC=C(C)C)c4)c(=O)oc3c2C)OC1(C)C", "note": "[novobiocin]", "values": [{"measurement": "potency at LC3A and LC3B LIR-interaction interface", "value": "weak potency"}]}
